Laboratory results reported in patent publication US12516237B2, “Alkyl lactone-derived corrosion inhibitors” (ChampionX LLC, priority 2018, dated 2026).

Experiment: Bubble cell test: corrosion rate of steel electrode by aqueous linear polarization resistance (LPR) in CO2-saturated synthetic oilfield brine/oil
Conditions: 15 h after dosing, 80° C., 80% water cut, CO2 purge, C1018, samples 10 ppm of 20% active + 2% 2ME; for % Protection (corrosion inhibition): relative to baseline corrosion rate before dosing, comparatives 20 ppm of 10% active + 1% 2ME; for Inhibited Corrosion Rate: comparatives 20 ppm of 10% active + 1% 2ME (same active concentration)
Excerpt: The bubble cell test was used to investigate the effectiveness of alkyl lactone-derived hydroxyamides as corrosion inhibitors. This test measures the corrosion rate of a steel electrode by aqueous linear polarization resistance (LPR). The steel electrodes (C1018) were placed in a bath of synthetic oilfield brine which was deaerated with carbon dioxide. The corrosion rate of the electrode was compared in the absence or presence of an alkyl lactone-derived hydroxyamide.
The synthetic oilfield brine contained about 3 wt % of sodium chloride, and the oil included a synthetic oil of INT-200 and xylene. The ratio of water to oil was 80:20. The oil/brine was placed into bubble cells and purged with CO2. The oil/brine was continually purged with CO2 to saturate the oil/brine prior to starting the test. The test cells were blanketed with CO2 throughout the duration of the test to maintain saturation. The bubble cells were stirred at 100 revolutions per minute (rpm) for the duration of the test to maintain thermal equilibrium at 80° C. The electrodes were all cleaned and polished prior to testing.
After about 3 hours of pre-corrosion time (i.e. without a corrosion inhibitor) 10 ppm of a 20% active of an alkyl-lactone chemistry (shown in Table 2 and prepared as described in Example 1) with 2% 2-mercaptoethanol (2ME) solvent was added. Comparison with a benzyl ammonium chloride quarternary chemistry and imidazoline chemistry was made at the same active concentration as the alkyl lactone together with 2ME (at the same dose based on chemistry and 2ME activity—i.e. these were dosed at twice the concentration because the active and 2ME in the test blend was half).

Structure (SMILES) | % Protection (corrosion inhibition) [%] | Inhibited Corrosion Rate [mpy]
CCCCCCCC(O)CCC(=O)NCCCN(C)C (stereo not drawn) [Sample 1, γ-Undecalactone/DMAPA] | 37 | 181
CCCCC(O)CCC(=O)NCCCN(C)C (stereo not drawn) [Sample 3, γ-Octalactone/DMAPA] | 31 | 177
CCCCCCC(O)CCCC(=O)NCCCN(C)C (stereo not drawn) [Sample 2, δ-Undecalactone/DMAPA] | 43 | 151
